# Experimental data: patent US10961233B2 (LIFEARC, priority 2016, dated 2021)
# What was measured:
# [1] = target: WT full length PAICS (Homo sapiens (Human), UniProt P22234); assay: Biochemical assay to measure PAICS activity (Transcreener ADP2 FI); details: SAICAR synthetase reaction, ADP detection, 30 min pre-incubation
# Description: Biochemical Assay to Measure PAICS Activity
# The biochemical assay was used to measure PAICS SAICAR synthetase-mediated conversion of CAIR, aspartic acid and ATP to SAICAR, ADP and inorganic phosphate (Pi), post-AIR/CAIR equilibration (see FIG. 3). This was achieved by detecting the ADP generated during the reaction, using Bellbrook Lab's Transcreener ADP^2 FI assay. An increase in the fluorescence intensity is directly proportional to the amount of PAICS activity.
# The Transcreener ADP^2 FI assay is a homogeneous competitive displacement fluorescence intensity assay which uses direct immunodetection of ADP. Displacement of the tracer by ADP causes an increase in the fluorescence at excitation 590 nm and emission 617 nm (FIG. 3).
# 5 μl WT full length PAICS (final assay concentration, fac, 2.5 nM) in basic buffer, added to black, non-binding, 384-well plates (Corning #3575), columns 1 to 22. 5 μl basic buffer was added to columns 23+24 (negative control). PAICS stock at 31.9 μM from the PI's lab (Steve Firestine). Basic buffer contained 50 mM Tris-HCl pH8 and 0.5 mM EDTA, fac.
# 1 μl compound in 100% DMSO added per well, or 1 μl 100% DMSO to positive controls (columns 1+2) and negative controls (columns 23+24). Final assay top concentration of compound either 1 mM or 30-μM, serially diluted with half-log dilutions across the plate in duplicate (one 10-point concentration response curve across wells 3 to 12, another across 13 to 22). Compounds pre-incubated with PAICS enzyme for 30 mins at RT. 2 μl CAIR added (fac 10 μM) in basic buffer plus 25 mM MgCl2 and 50 mM KHCO3 fac to all wells. CAIR stock 50 mM from Steve Firestine's lab. 1 hr RT incubation for AIR-CAIR equilibration. NB: ˜50% CAIR is decarboxylated during equilibration therefore 5 μM remains for the synthetase reaction.
# 2 μl ATP/aspartic acid added (fac 30 μM/180 μM) in reaction buffer to all wells. 30 mins RT incubation for appropriate level of ATP turnover. Reaction buffer contained basic buffer plus 10 mM DTT, 0.01% BSA and 0.01% Brij 35, fac.
# 10 μl ADP detection reagent added to all wells (as per instructions, Transcreener ADP^2 FI kit, BellBrook Labs #3013-10K). Incubation for 1 h at RT to allow antibody equilibration. Fluorescence intensity determined using a Tecan Safire2 (excitation at 590 nm, emission at 617 nm).
# [2] = test system: LM2 and MDA-MB-231 breast cancer cell lines; assay: PAICS 2D cell proliferation assay (CellTiter-Glo viability, 72 h); format: cell-based; details: Homo sapiens; 72 h incubation; cell line not given
# Experimental: PAICS 2D Cell Proliferation Assay
# Frozen cryovial stocks of LM2 and MDA-MB-231 breast cancer cell lines were thawed and cultured in 4.5 g/L glucose DMEM (31966-047, Invitrogen) supplemented with 10% Fetal Bovine Serum (10500-064, Invitrogen) until confluent in a T175 flask. Cells were incubated at 37° C. with 5% CO2 in a humidified incubator.
# Cells were collected from T175 flasks by washing with PBS (10010-056, Invitrogen) and dissociated using Accutase (A6964, Sigma Aldrich). This was followed by centrifuging (1200 rpm, 5 min) and resuspending the cells in 10 ml of media containing 1% penicillin/streptomycin (15140-122, Invitrogen). Cells were counted by trypan blue exclusion method using an automated cell counter (Cellometer) and diluted to a concentration of 40,000/ml. 1000 cells were then seeded into 384-well white-walled plates (Corning, 3707) in a volume of 25 μl. Plates were Incubated overnight at 37° C. with 5% CO2.
# After 24 hours, PAICS compounds were added onto the assay plates using an HP D300 Digital Dispenser (Hewlett Packard). 10 mM stocks were used and dispensed as a 10 point concentration response curve (CRC) ½ log dilution series with a final top concentration of 100 μM. Controls were added onto each plate: positive controls included Staurosporine CRC (100 μM stock dispensed as a 10 point CRC ½ log dilution series with a final top concentration of 1 μM) and PAICS compound MRT00211919 (10 mM stock dispensed as a 10 point CRC ½ log dilution series with a final top concentration of 100 μM); a high control of Staurosporine (0.1 μM (LM2), 0.316 μM (MDA-MB-231) FAC) and a low control of media containing 1% DMSO. A final concentration of 1% DMSO was then added across the plates for normalisation. Following compound addition, assay plates were incubated for 72 hours at 37° C. with 5% CO2.
# Day 5—Cytotoxicity and Cell Viability Assays
# After 72 h incubation, dead and viable cells were measured in each assay plate. Cytotoxicity was assessed through fluorescent DNA staining using the CellTox™ Green Cytotoxicity Assay kit (G8743, Promega) following the manufacturer's multiplexing protocol. Impaired cell membrane integrity results in the access of dye to stain DNA allowing quantification of dead cells. Cell viability was determined following ATP quantification using the CellTiter-Glo® Luminescent Cell Viability Assay kit (G7572, Promega) following the manufacturer's protocol. ATP released from lysed cells allowed for the generation of a signal proportional to the number of cells present in the well. All endpoint reads were performed using the PheraSTAR Plus (BMG Labtech). Data is expressed as % viable cells and % dead cells against controls (mean±SEM of duplicate curves).
# Chain of WT full length PAICS (P22234 whole entry): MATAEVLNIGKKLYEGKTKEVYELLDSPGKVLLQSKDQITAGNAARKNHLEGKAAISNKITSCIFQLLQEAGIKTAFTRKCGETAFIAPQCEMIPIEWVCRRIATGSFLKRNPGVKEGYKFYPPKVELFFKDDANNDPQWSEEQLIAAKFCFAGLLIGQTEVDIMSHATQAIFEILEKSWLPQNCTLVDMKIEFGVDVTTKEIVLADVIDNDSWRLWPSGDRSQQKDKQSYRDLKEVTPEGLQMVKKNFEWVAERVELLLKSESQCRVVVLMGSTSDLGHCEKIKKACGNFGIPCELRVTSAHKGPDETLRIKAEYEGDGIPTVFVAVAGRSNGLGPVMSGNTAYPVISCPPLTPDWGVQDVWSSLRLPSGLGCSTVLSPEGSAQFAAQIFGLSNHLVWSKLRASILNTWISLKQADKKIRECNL
Structure (SMILES),IC50 [1] [nM],EC50 [2] [nM]
Nc1nc(C(=O)Nc2cc(N3CCN(S(=O)(=O)C4CCNCC4)CC3)ccc2Br)co1 [Example 84],< 10,100 to 250
"CCNCC(C)CS(=O)(=O)N1CCN(c2ccc(Br)c(NC(=O)c3coc(N)n3)c2)CC1 (stereo not drawn) [Example 79, 2-Amino-N-[2-bromo-5-(4-{[3-(ethylamino)-2-methylpropyl]sulfonyl}piperazin-1-yl)phenyl]-1,3-oxazole-4-carboxamide]",–,< 100
"CNCCOC(=O)N1CCN(c2ccc(Br)c(NC(=O)c3coc(N)n3)c2)CC1 [Example 25, 2-(Methylamino)ethyl 4-(3-(2-aminooxazole-4-carboxamido)-4-bromophenyl)piperazine-1-carboxylate]",10 to 25,100 to 250
CCNCCCS(=O)(=O)N1CCN(c2ccc(Cl)c(NC(=O)c3coc(N)n3)c2)CC1 [Example 74],< 10,250 to 500
"CC(CN(C)C)CS(=O)(=O)N1CCN(c2ccc(Br)c(NC(=O)c3coc(N)n3)c2)CC1 (stereo not drawn) [Example 82, 2-Amino-N-[2-bromo-5-(4-{[3-(dimethylamino)-2-methylpropyl]sulfonyl}piperazin-1-yl)phenyl]-1,3-oxazole-4-carboxamide]",–,100 to 250
"CN1CCC(S(=O)(=O)N2CCN(c3ccc(Br)c(NC(=O)c4coc(N)n4)c3)CC2)C1 (stereo not drawn) [Example 89, 2-Amino-N-(2-bromo-5-{4-[(1-methylpyrrolidin-3-yl)sulfonyl]piperazin-1 yl}phenyl)-1,3-oxazole-4-carboxamide]",–,100 to 250
"CC(C)NCCCS(=O)(=O)N1CCN(c2ccc(Br)c(NC(=O)c3coc(N)n3)c2)CC1 [Example 76, 2-Amino-N-[2-bromo-5-(4-{[3-(propan-2-ylamino)propyl]sulfonyl}piperazin-1-yl)phenyl]-1,3-oxazole-4-carboxamide]",< 10,< 100
"CN1CCC(S(=O)(=O)N2CCN(c3ccc(Br)c(NC(=O)c4coc(N)n4)c3)CC2)CC1 [Example 85, 2-Amino-N-(2-bromo-5-{4-[(1-methylpiperidin-4-yl)sulfonyl]piperazin-1-yl}phenyl)-1,3-oxazole-4-carboxamide]",< 10,100 to 250
"Nc1nc(C(=O)Nc2cc(N3CCN(S(=O)(=O)C4CCNC4)CC3)ccc2Br)co1 (stereo not drawn) [Example 88, 2-Amino-N-{2-bromo-5-[4-(pyrrolidin-3-ylsulfonyl)piperazin-1-yl]phenyl}-1,3-oxazole-4-carboxamide]",–,100 to 250
"CN(C)CCCS(=O)(=O)N1CCN(c2ccc(Cl)c(NC(=O)c3coc(N)n3)c2)CC1 [Example 68, 2-Amino-N-[2-chloro-5-(4-{[3-(dimethylamino)propyl]sulfonyl}piperazin-1-yl)phenyl]-1,3-oxazole-4-carboxamide]",10 to 25,250 to 500
"CC(CNC(C)C)CS(=O)(=O)N1CCN(c2ccc(Br)c(NC(=O)c3coc(N)n3)c2)CC1 (stereo not drawn) [Example 80, 2-Amino-N-[2-bromo-5-(4-{[2-methyl-3-(propan-2-ylamino)propyl]sulfonyl}piperazin-1-yl)phenyl]-1,3-oxazole-4-carboxamide]",–,< 100
"CCN(CC)CC(C)CS(=O)(=O)N1CCN(c2ccc(Br)c(NC(=O)c3coc(N)n3)c2)CC1 (stereo not drawn) [Example 81, 2-Amino-N-[2-bromo-5-(4-{[3-(diethylamino)-2-methylpropyl]sulfonyl}piperazin-1-yl)phenyl]-1,3-oxazole-4-carboxamide]",–,100 to 250
"CSc1ccc(N2CCN(C(=O)OCCN(C)C)CC2)cc1NC(=O)c1coc(N)n1 [Example 27, 2-(Dimethylamino)ethyl 4-[3-{[(2-amino-1,3-oxazol-4-yl)carbonyl]amino}-4-(methylsulfanyl)phenyl]piperazine-1-carboxylate]",–,500 to 1000

# The remaining lines, values ahead:
IC50 [1] [nM],EC50 [2] [nM],Structure (SMILES)
< 10,< 100,"CCNCCCS(=O)(=O)N1CCN(c2ccc(Br)c(NC(=O)c3coc(N)n3)c2)CC1 [Example 70, 2-Amino-N-[2-bromo-5-(4-{[3-(ethylamino)propyl]sulfonyl}piperazin-1-yl)phenyl]-1,3-oxazole-4-carboxamide]"
10 to 25,500 to 1000,CN1CC(CN2CCN(c3ccc(Br)c(NC(=O)c4coc(N)n4)c3)CC2=O)C1 [Example 44]
10 to 25,500 to 1000,"CN1CC(COC(=O)N2CCN(c3ccc(Cl)c(NC(=O)c4coc(N)n4)c3)CC2)C1 [Example 20, (1-Methylazetidin-3-yl) methyl 4-(3-(2-aminooxazole-4-carboxamido)-4-chlorophenyl) piperazine-1-carboxylate]"
25 to 100,500 to 1000,"Nc1nc(C(=O)Nc2cc(N3CCN(C(=O)OCCNC4CC4)CC3)ccc2Cl)co1 [Example 35, 2-(Cyclopropylamino)ethyl 4-(3-{[(2-amino-1,3-oxazol-4-yl)carbonyl]amino}-4-chlorophenyl)piperazine-1-carboxylate]"
–,500 to 1000,"CSc1ccc(N2CCN(C(=O)OCCCN(C)C)CC2)cc1NC(=O)c1coc(N)n1 [Example 26, 3-(Dimethylamino)propyl-4-[3-{[(2-amino-1,3-oxazol-4-yl)carbonyl]amino}-4-(methylsulfanyl)phenyl]piperazine-1-carboxylate]"
> 100,100 to 250,"Nc1nc(C(=O)Nc2cc(N3CCN(C(=O)OC4CNC4)CC3)ccc2Cl)co1 [Example 22, Azetidin-3-yl 4-(3-{[(2-amino-1,3-oxazol-4-yl)carbonyl]amino}-4-chlorophenyl)piperazine-1-carboxylate]"
25 to 100,500 to 1000,"CN1CC(OC(=O)N2CCN(c3ccc(Cl)c(NC(=O)c4coc(N)n4)c3)CC2)C1 [Example 34, 1-Methylazetidin-3-yl 4-(3-{[(2-amino-1,3-oxazol-4-yl)carbonyl]amino}-4-chlorophenyl)piperazine-1-carboxylate]"
25 to 100,500 to 1000,"CNCCOC(=O)N1CCN(c2ccc(Cl)c(NC(=O)c3coc(N)n3)c2)CC1 [Example 31, 2-(Methylamino)ethyl 4-(3-{[(2-amino-1,3-oxazol-4-yl)carbonyl]amino}4-chlorophenyl)piperazine-1-carboxylate]"
–,< 100,"CC(CN1CCCC1)CS(=O)(=O)N1CCN(c2ccc(Br)c(NC(=O)c3coc(N)n3)c2)CC1 (stereo not drawn) [Example 71, 2-Amino-N-[2-bromo-5-(4-{[2-methyl-3-(pyrrolidin-1-yl)propyl]sulfonyl}piperazin-1-yl)phenyl]-1,3-oxazole-4-carboxamide]"
–,< 100,"CNCC(C)CS(=O)(=O)N1CCN(c2ccc(Br)c(NC(=O)c3coc(N)n3)c2)CC1 (stereo not drawn) [Example 78, 2-Amino-N-[2-bromo-5-(4-{[2-methyl-3-(methylamino)propyl]sulfonyl}piperazin-1-yl)phenyl]-1,3-oxazole-4-carboxamide]"
